Test results taken from patent US20260325546A1, “METHODS OF TREATMENT USING DRY POWDER COMPOSITIONS OF TREPROSTINIL PRODRUGS” (Insmed Incorporated, priority 2024, published 2026).

Tests used:
[1] = test system: healthy adults; test: Phase I single-dose safety and tolerability study of TPIP in healthy adults; assay type: in vivo, human
Experimental: Specifically, in a Phase I safety, tolerability, and PK study, healthy adults were administered single doses of 112.5 μg, 225 μg, 450 μg, and 675 μg of a compound of Formula (II).

[2] = test system: subjects with pulmonary hypertension, including pulmonary arterial hypertension; test: Phase 2 safety and efficacy study in subjects with pulmonary hypertension; assay type: in vivo, human
Experimental: In a Phase 2 safety and efficacy study, the following doses of were investigated in subjects with pulmonary hypertension, including pulmonary arterial hypertension: 80 μg, 160 μg, 240 μg, 320 μg, 400 μg, 480 μg, and 640 μg. In this study, patients were administered a starting dose of 80 μg of the TPIP and the dose was titrated up to 640 μg according to FIG. 2.

[3] = test system: rodent model of PAH; test: Rodent model of PAH; assay type: in vivo; details: inhibits associated adverse pathology and pathophysiology
Description: (§1) Treprostinil palmitil (TP) is a hexadecyl ester prodrug of treprostinil (TRE). In the lung, TP is hydrolyzed by esterases to TRE and hexadecanol.

[4] = Preclinical safety / toxicology of TP; assay type: in vivo; details: nonclinical
Description: as §1

[5] = Nonclinical studies of TP: delivery / PK and PD profile; assay type: in vivo
Description: as §1

[6] = Nonclinical studies of TP: conversion of prodrug to treprostinil; assay type: in vitro ADME; details: nonclinical (in vitro and in vivo)
Description: as §1

CCCCCCCCCCCCCCCCOC(=O)COc1cccc2c1C[C@H]1C[C@@H](O)[C@H](CC[C@@H](O)CCCCC)[C@H]1C2 [treprostinil palmitil]
serious or severe TEAEs (printed TEALs) ([1]; single doses 112.5, 225, 450, 675 μg): no serious or severe TEALs were observed | safety and tolerability ([1]; single doses 112.5, 225, 450, 675 μg / highest doses tested): safe and well-tolerated | tolerability ([2]; 80 μg to 640 μg, titrated): well tolerated | tolerability of 640 μg ([2]; 640 μg, highest dose administered in a clinical trial): well tolerated | efficacy at higher doses ([2]; higher doses): promising efficacy | efficacy in PAH model [3]: efficacious in a rodent model of PAH | preclinical safety [4]: did not demonstrate concerning preclinical safety or toxicological findings | delivery of treprostinil [5]: sustained delivery of treprostinil to the lungs and systemic circulation | conversion to treprostinil [6]: converted from the prodrug to the active drug, treprostinil
